Assay [1] deals with formalin-induced flinching and licking of the affected paw. Nature of the assay: rat formalin paw test (late phase). It is filed as in vivo. On the procedure: Rats were given an intraplantar injection of 5% formalin (50 μl) into the posterior left paw. This treatment induces a recognizable flinching and licking response of the affected paw in control animals. The number of flinches was counted for 15 minutes, beginning 20 minutes after injection of formalin. The time spent licking the affected paw was also recorded.
Male Rj: Wistar (Han) rats, 10 per group, weighing 100-130 g at the beginning of the experiments were studied per group. The test was performed blind.
Lacosamide (20 mg/kg), gabapentin (50 and 100 mg/kg), combinations of lacosamide (20 mg/kg) with gabapentin (50 and 100 mg/kg), and vehicle were administered i.p. 10 minutes before injection of formalin.
Lacosamide (10 and 20 mg/kg), morphine (2 and 4 mg/kg), combinations of lacosamide (10 and 20 mg/kg) with morphine (2 and 4 mg/kg), and vehicle were administered i.p. 10 minutes before injection of formalin.
Lacosamide (10 mg/kg), duloxetine (8 mg/kg), a combination of lacosamide (10 mg/kg) with duloxetine (8 mg/kg), and vehicle were administered i.p. 10 minutes before injection of formalin.
Lacosamide (10 and 20 mg/kg), memantine (4 and 8 mg/kg), combinations of lacosamide (10 and 20 mg/kg) with memantine (4 and 8 mg/kg), and vehicle were administered i.p. 10 minutes before injection of formalin.
Lacosamide (10 and 20 mg/kg), naproxen (8 and 16 mg/kg), combinations of lacosamide (10 and 20 mg/kg) with […] (8 and 16 mg/kg), and vehicle were administered i.p. 10 minutes before injection of formalin. Morphine (8 mg/kg) was included as a comparative treatment.

Assay [2] has as its system monosodium iodoacetate-induced mechanical hyperalgesia. Nature of the assay: monosodium iodoacetate-induced mechanical hyperalgesia (Randall-Selitto paw pressure). It is filed as in vivo, rat. The settings on record: for mechanical hyperalgesia (paw pressure withdrawal threshold) compared to iodoacetate/vehicle treated animals: day 3; for mechanical hyperalgesia (paw pressure withdrawal threshold): day 7.

For assay [3], the system named is monosodium iodoacetate-induced tactile allodynia. Nature of the assay: monosodium iodoacetate-induced tactile allodynia (von Frey filaments). It is filed as in vivo, rat.
Assay [4] concerns muscle pressure hyperalgesia induced by TNF. Nature of the assay: TNF-induced muscle pressure hyperalgesia (Randall-Selitto, gastrocnemius muscle). The format is in vivo, rat. The settings on record: for reversal of muscular mechanical hyperalgesia (withdrawal threshold to muscle pressure): TNF 1 μg i.m. gastrocnemius; for full reversal of the muscle hyperalgesia: doses tested (pregabalin 30, 100 mg/kg; gabapentin 100 mg/kg i.p.). The source says:
(§1) The model used in this example is applicable to musculoskeletal pain which occurs in fibromyalgia, myofascial pain syndrome or back pain. For comparative purposes, the non-opioid analgesic dipyrone (metamizol) and the anticonvulsants pregabalin and gabapentin were included in the study.
(§2) Adult male Sprague Dawley rats with a body weight of 250 g to 300 g were used (supplier: Charles River, Sulzfeld, Germany). Animals were group-housed (3 animals per cage) and maintained in a room with controlled temperature (21-22° C.) and a reversed light-dark cycle (12 h/12 h) with food and water available ad libitum. All experiments were approved by the Bavarian State animal experimentation committee and carried out in accordance with its regulations.
(§3) Recombinant rat tumor necrosis factor alpha (herein referred to as TNF) was obtained from R&D Systems, Minneapolis, Minn., U.S.A. TNF was diluted in 0.9% NaCl and used in a concentration of 1 μg in 50 μl. Injections were performed in short halothane narcosis with a 30 g needle bilaterally into the gastrocnemius or into the biceps brachii muscle. All rats were used to the behavioral tests before injections and baseline values were recorded over three test days.
Mechanical withdrawal thresholds to muscle pressure were measured with an analgesimeter (Ugo Basile, Comerio, Italy). The rat was allowed to crawl into a sock which helps the rat to relax. The hind limbs were positioned such that an increasing pressure could be applied onto the gastrocnemius muscle (maximum 250 g). The pressure needed to elicit withdrawal was recorded. Means of 3 trials for each hind limb were calculated (interstimulus interval of >30 sec). Only animals with a significant TNF effect were included for further analysis.
Rats were injected with TNF into the gastrocnemius muscle at 2 pm. Eighteen hours later, rats were tested for pressure hyperalgesia pre- and post-administration of the test drug. Rats were tested for pressure hyperalgesia 30 to 60 minutes after drug administration.
(§4) The rats, initially 10 per group, were treated with either 3, 10 or 30 mg/kg lacosamide, 2 mg/kg metamizol, 30 or 100 mg/kg pregabalin, 100 mg/kg gabapentin, or the NaCl vehicle, i.p. (intraperitoneally). Volume of i.p. injections was 0.5 ml. A pilot study was performed to confirm that i.m. (intramuscular) injection of 1 μg TNF into the gastrocnemius muscle was sufficient to induce pressure hyperalgesia.
(§5) Data are shown in graphs displaying means and standard errors of the means (SEM). Pre- and post-treatment data were compared using ANOVA (analysis of variance) and a Tukey post hoc test. Means of treatment groups were compared using a one-way ANOVA and Dunnett's post hoc test. Maximal possible effects (MPE) were calculated for all types of treatment.

Assay [5] deals with TNF-induced reduction of grip strength. Nature of the assay: biceps muscle grip strength after TNF-induced muscle pain. It is filed as in vivo, rat. To be noted: for reversal of TNF-induced reduction of grip strength: TNF 1 μg i.m. biceps brachii.
Source text: as §1, §2, §3
Grip strength of the forelimbs was tested with a digital grip force meter (DFIS series, Chatillon, Greensboro, N.C., U.S.A.). The rat was positioned to grab the grid with the forelimbs and was gently pulled so that the grip strength could be recorded. Means of three trials were calculated. The effect of the TNF treatment was calculated for each animal separately and only animals with a significant TNF effect were included for further analysis.
Rats were injected with TNF into the biceps brachii muscle at 8 am. Six hours later, grip strength of the forelimbs was tested with a digital grip force meter. Test drug was administered, and grip strength was again tested after 30 to 60 minutes.
as §4, §5

The mark [6] stands for this setting: Example 5, duloxetine 8 mg/kg i.p.
Setting [7] is: 3 mg/kg (lacosamide p.o., morphine s.c.).
The mark [8] stands for this setting: Example 4, morphine 2 mg/kg i.p.
[9] abbreviates: Example 4, morphine 4 mg/kg i.p.
[10] abbreviates: Example 7, morphine 8 mg/kg i.p.
The mark [11] stands for this setting: Example 3, gabapentin 50 mg/kg i.p.
Setting [12] is: Example 3, gabapentin 100 mg/kg i.p.

The structures appear in SMILES notation. Entries after “also recorded” stand apart in the source; their conditions may differ.

In the case of `CC12CC3CC(C)(C1)CC(N)(C3)C2` [Memantine, memantine, reference compound], in assay [1] (Example 6, memantine 4 and 8 mg/kg i.p.), the “effect on the number of flinches as compared with vehicle controls” value is “did not clearly affect”.
As for `COc1ccc2cc([C@H](C)C(=O)O)ccc2c1` [Naproxen, naproxen, reference compound], the “effect on the number of flinches or the time spent licking as compared with vehicle controls” value in assay [1] (Example 7, naproxen 8 and 16 mg/kg i.p.) was “did not clearly affect”.
With `CNCC[C@H](Oc1cccc2ccccc12)c1cccs1` [Duloxetine, duloxetine, reference compound], in assay [1] (setting [6]), the “Licking time % change (a): compared with vehicle control” value (“Licking time % change” for short) is reported as −26%, the “Licking time (seconds) mean ± SEM” value was found to be 195.5 ± 45.0 s, the “No. of flinches % change (a): compared with vehicle control” value (“No. of flinches % change” below) is reported as −1% and the “No. of flinches mean ± SEM” value stood at 149.6 ± 27.3. Further, the “effects on number of flinches and time spent licking” value in assay [1] (setting [6]) is given as “no clear effects”.
With `CN1CC[C@]23c4c5ccc(O)c4O[C@H]2[C@@H](O)C=C[C@H]3[C@H]1C5` [Morphine, morphine, reference compound], in assay [2] (setting [7]), the “mechanical hyperalgesia (paw pressure withdrawal threshold) compared to iodoacetate/vehicle treated animals” value was “increase in paw pressure withdrawal threshold” and the “mechanical hyperalgesia (paw pressure withdrawal threshold)” value was “reduced mechanical hyperalgesia”. Also, in assay [1] (setting [8]), the “Licking time % change” value is −1%, the “Licking time (seconds) mean ± SEM” value came out at 289.3 ± 30.7 s, the “No. of flinches % change” value is −7% and the “No. of flinches mean ± SEM” value worked out at 139.5 ± 25.3. In assay [1] (setting [9]), the “Licking time % change” value is −20%, the “Licking time (seconds) mean ± SEM” value was found to be 234.9 ± 37.3 s, the “No. of flinches % change” value is on record as −37% and the “No. of flinches mean ± SEM” value worked out at 94.3 ± 21.1. Further, in assay [1] (Example 4, morphine 2 and 4 mg/kg i.p.), the “effects on the number of flinches and the time spent licking as compared with vehicle controls” value was “did not reach statistical significance”. In assay [1] (setting [10]), the “Licking time % change” value is on record as −100%, the “Licking time (seconds) mean ± SEM” value was found to be 0.0 ± 0.0 s, the “No. of flinches % change” value is reported as −100% and the “No. of flinches mean ± SEM” value came out at 0.2 ± 0.1. In assay [1] (setting [10]), the “effect on flinching and the time spent licking as compared with vehicle controls” value is on record as “eliminated”. In addition, the “tactile allodynia of iodoacetate-treated rats” value (from here on “tactile allodynia”) in assay [3] (day 3, 3 mg/kg s.c.) was “improved”. In addition, in assay [3] (day 7, 3 mg/kg s.c.), the “tactile allodynia” value was “improved”. For the same compound, the “tactile allodynia” value in assay [3] (day 14, 3 mg/kg s.c.) is “not on day 14”.
`O=C(O)Cc1ccccc1Nc1c(Cl)cccc1Cl` [Diclofenac, diclofenac]: in assay [2] (30 mg/kg s.c.), the “mechanical hyperalgesia (paw pressure withdrawal threshold) compared to iodoacetate/vehicle treated animals” value is “increase in paw pressure withdrawal threshold”. In addition, the “mechanical hyperalgesia (paw pressure withdrawal threshold)” value in assay [2] (30 mg/kg (lacosamide p.o., diclofenac s.c.)) is on record as “reduced mechanical hyperalgesia”. Further, the “tactile allodynia” value in assay [3] (day 3, 30 mg/kg (lacosamide p.o., diclofenac s.c.)) is “no effect”; in assay [3] (day 7, 30 mg/kg (lacosamide p.o., diclofenac s.c.)), “no effect”; in assay [3] (day 14, 30 mg/kg (lacosamide p.o., diclofenac s.c.)), “no effect”.
On to `NCC1(CC(=O)O)CCCCC1` [Gabapentin, gabapentin, reference compound], for which, in assay [4] (100 mg/kg i.p.), the “MPE (maximal possible effect) on muscle pressure hyperalgesia, versus vehicle” value is given as “significantly different from vehicle” and the “reversal of muscular mechanical hyperalgesia (withdrawal threshold to muscle pressure)” value is “significant reversal”. The “full reversal of the muscle hyperalgesia” value in assay [4] was “Neither pregabalin nor gabapentin led to a full reversal”. In assay [1] (setting [11]), the “Licking time % change” value is −28%, the “Licking time (seconds) mean ± SEM” value was found to be 161.0 ± 27.3 s, the “No. of flinches % change” value is given as −24% and the “No. of flinches mean ± SEM” value amounted to 97.4 ± 23.8. Also, in assay [1] (setting [11]), the “decrease in the number of flinches as compared with vehicle controls” value came out at 24% and the “decrease in the time spent licking as compared with vehicle controls” value turned out to be 28%. Also, in assay [1] (setting [12]), the “Licking time % change” value is reported as −60%, the “Licking time (seconds) mean ± SEM” value stood at 90.0 ± 22.5 s, the “No. of flinches % change” value is on record as −31% and the “No. of flinches mean ± SEM” value is reported as 88.1 ± 19.4. For the same compound, in assay [1] (setting [12]), the “decrease in the number of flinches as compared with vehicle controls” value came out at 31% and the “decrease in the time spent licking as compared with vehicle controls” value stood at 60%. In addition, the “MPE (maximal possible effect) on biceps muscle grip strength, versus vehicle” value in assay [5] (100 mg/kg i.p.) is “significantly different from vehicle”. Further, in assay [5] (100 mg/kg i.p., 100 mg/kg), the “reversal of TNF-induced reduction of grip strength” value was “significant reversal; also recorded: improved grip strength”.
`Cc1c(N(C)CS(=O)(=O)O)c(=O)n(-c2ccccc2)n1C` [metamizol]: in assay [4] (2 mg/kg i.p.), the “MPE (maximal possible effect) on muscle pressure hyperalgesia, versus vehicle” value is “significantly different from vehicle” and the “reversal of muscular mechanical hyperalgesia (withdrawal threshold to muscle pressure)” value is recorded as “complete reversal”. For the same compound, in assay [5] (2 mg/kg i.p.), the “MPE (maximal possible effect) on biceps muscle grip strength, versus vehicle” value is recorded as “significantly different from vehicle” and the “reversal of TNF-induced reduction of grip strength” value is given as “significant reversal”.
On to `CC(C)C[C@H](CN)CC(=O)O` [pregabalin], for which, in assay [4] (30 mg/kg i.p.), the “MPE (maximal possible effect) on muscle pressure hyperalgesia, versus vehicle” value was “significantly different from vehicle” and the “reversal of muscular mechanical hyperalgesia (withdrawal threshold to muscle pressure)” value is recorded as “significant reversal”. Also, in assay [4] (100 mg/kg i.p.), the “MPE (maximal possible effect) on muscle pressure hyperalgesia, versus vehicle” value is recorded as “significantly different from vehicle” and the “reversal of muscular mechanical hyperalgesia (withdrawal threshold to muscle pressure)” value is “significant reversal”. Moreover, in assay [4], the “full reversal of the muscle hyperalgesia” value is listed as “Neither pregabalin nor gabapentin led to a full reversal”. Further, the “MPE (maximal possible effect) on biceps muscle grip strength, versus vehicle” value in assay [5] (100 mg/kg i.p.) is listed as “significantly different from vehicle”. For the same compound, in assay [5] (100 mg/kg i.p., 100 mg/kg), the “reversal of TNF-induced reduction of grip strength” value was “significant reversal; also recorded: improved grip strength”.

(Values after patent US20070197657A1, “Method for treating non-inflammatory musculoskeletal pain” (SRZ Properties, Inc., priority 2005, published 2007).)
